80 molecules from article PMC12040169 (PLOS Biology, 2025) can be followed below.

The data set in a line: in vitro. To be noted: human, hela cells, % viability.

What is called viability is a read-out of living cells in per cent, often relative to untreated cells. For the molecule `CCc1c(C)nc2ccccc2c1[S+]([O-])CCC(=O)OC` (centres unmarked) [CBK155467T], the viability at 28.5 h, 10 µM is 91.8%. Turning to `CC(=O)Nc1cccc(-c2ccc(Nc3cccc(N(C)C)c3)nc2)c1` [CBK036829], the viability at 28.5 h, 10 µM stood at 97.9%.

For the molecule `Cc1sc2ccc(-c3ccccc3)cc2[n+]1CCCS(=O)(=O)[O-]` [CBK260947], the viability at 28.5 h, 10 µM was determined as 90.7%. Turning to `N#C/C(C(=O)Nc1ccccc1)=C(/O)c1nn(-c2ccccc2)c2c1CSc1ccccc1-2` [CBK017685], the viability at 28.5 h, 10 µM is 92.7%. As for `Cc1ccc(/C=N/NC(=O)CN(c2ccccc2)S(=O)(=O)c2ccccc2)c(C)c1C` [CBK262098], the viability at 28.5 h, 10 µM turned out to be 89.6%. On the same count and under the same terms, for `c1coc(COc2cncc(N3CCNCC3)n2)c1` [CBK013393] the value was 94.2%.

With `O=C(/C=C/c1cccnc1)Nc1ccccc1N1CCNCC1` [CBK034136T], the viability at 28.5 h, 10 µM is 102%. On to `Cc1ccc(Cc2cnc(NC(=O)CN3CCCCC3)s2)cc1Cl` [CBK307299], for which the viability at 28.5 h, 10 µM was 84.9%. With `CCN(CC)C(=O)c1sc2ncccc2c1NS(=O)(=O)c1c(C)noc1C` [CBK050617], the viability at 28.5 h, 10 µM turned out to be 115%. For `CC(=O)Nc1cccc(NC(=O)N2CCNC(=O)C2)c1` [CBK155863], the viability at 28.5 h, 10 µM amounted to 77.7%. For the molecule `CSc1nsc(NC(=O)Nc2ccccc2)n1` [CBK027286], the viability at 28.5 h, 10 µM is 97.9%. For `S=C(NCCc1ccccn1)NCCN1CCOCC1` [CBK268296], the viability at 28.5 h, 10 µM amounted to 101%. On to `OCCC1CCCCN1c1nccnc1-c1ccsc1` (centres unmarked) [CBK037358], for which the viability at 28.5 h, 10 µM came out at 105%. Consider `COc1ccc(C2NC(C(=O)O)CS2)cc1CN1C[C@@H]2C[C@H](C1)c1cccc(=O)n1C2` (some centres unmarked) [CBK020798], for which the viability at 28.5 h, 10 µM turned out to be 93.8%. Consider `NC(=O)NC(CC(=O)N1CCc2sccc2C1)c1cccc(Br)c1` (centres unmarked) [CBK305813], for which the viability at 28.5 h, 10 µM came out at 95%. Consider `O=C(Nc1ccc2ncsc2c1)C1COc2ccccc2O1` (centres unmarked) [CBK287750], for which the viability at 28.5 h, 10 µM was 95.6%.

On to `O=C(O)Cn1nnc(-c2ccncc2)n1` [CBK269884], for which the viability at 28.5 h, 10 µM was found to be 86.6%.

As for `O=C(O)c1ccc2c(c1)C1C=CCC1C(c1cccc([N+](=O)[O-])c1)N2` (centres unmarked) [CBK287008], the viability at 28.5 h, 10 µM stood at 94.7%. Regarding `CC(C)Nc1cncc(Sc2cccc(C(=O)O)c2)n1` [CBK093582], the viability at 28.5 h, 10 µM was found to be 95.1%. Take `O=C(c1cccnc1)N1C[C@@H]2OCC(=O)N(Cc3ccc(F)cc3)[C@@H]2C1` [CBK289691]: the viability at 28.5 h, 10 µM was 96.1%. Take `CN(C)c1ccc(-n2ccn(S(=O)(=O)c3ccc4ccccc4c3)c2=O)cc1` [CBK106607]: the viability at 28.5 h, 10 µM is 93.5%. On the same count and under the same terms, for `Cc1cnc(CNC(=O)c2ccc(-c3ccoc3)nc2)cn1` [CBK156267] the value was 109%; for `O=C(Nc1ccc(N2CCNCC2)c2ccccc12)c1ccccc1` [CBK028412T], 92.8%. On to `O=C(O)c1ccccc1-c1ccccc1C(=O)Nc1ccccc1-c1ccccc1` [CBK262843], for which the viability at 28.5 h, 10 µM amounted to 84.4%. In the case of `C=C(C)Cn1c(Cc2c[nH]c3ccccc23)nnc1SCC(C)C` [CBK200087T], the viability at 28.5 h, 10 µM is 98.6%. Regarding `Cc1cccn2cc(C(=O)NCCCn3cccn3)nc12` [CBK281749], the viability at 28.5 h, 10 µM is 75.3%.

For `COc1ccccc1-c1cc(Nc2cccc(N(C)C)c2)ncn1` [CBK091011], the viability at 28.5 h, 10 µM came to 95.5%. Same read-out and setting: in the case of `Cc1ccccc1-c1cncc(C2CCN(C(=O)CCOc3ccccc3)CC2)n1` [CBK286154] it was 99%; in that of `CCOC(=O)c1ccc(-n2sc3ccccc3c2=O)cc1` [CBK115552], 99.1%; in that of `O=C(NCc1ccncc1)c1ccc(-n2ccnc2)c(-n2cccc2)c1` [CBK285367], 88.4%. For the molecule `O=C1COc2ccccc2C/C=C/CC2(CCN(C(=O)c3cncc(O)c3)CC2)C(=O)NCCN1` [CBK291989], the viability at 28.5 h, 10 µM is 98.3%. On the same count and under the same terms, for `CC(=O)N(Cc1cccnc1)c1nc2cc3c(cc2s1)OCCO3` [CBK287696] the value was 99.9%; for `O=c1cc(N2CCCCC2)cnn1Cc1nccs1` [CBK307678], 87.4%. Take `CC(=O)c1c(C)n(O)c2ccc(Cl)cc2c1=O` [CBK217746]: the viability at 28.5 h, 10 µM was 107%.

Take `Cc1ccc2oc([C@H]3CCN(Cc4ccc(C(=O)O)cc4)C3)nc2c1` [CBK289386]: the viability at 28.5 h, 10 µM worked out at 100%. `Cc1nc[nH]c1CN(CCCn1ccnc1)Cc1ccccc1Cl` [CBK282473]: the viability at 28.5 h, 10 µM came out at 103%. The same measure, in the same setting: for `COc1ccc(Cl)cc1NC(=O)Cn1nc(-c2ccccc2)ccc1=O` [CBK270124] the value was 85.1%; for `O=C(Nc1sc2c(c1C(=O)O)CCCC2)c1cc2ccccc2o1` [CBK264551], 91%. With `CCCCC1C(=O)N(C)CCN1C(=O)NCc1cn2ccc(C)cc2n1` (centres unmarked) [CBK306648], the viability at 28.5 h, 10 µM was 91.8%. Take `COc1cc(CCN2CCN(C(C)C)CC2)cc(OC)c1OC` [CBK028881C]: the viability at 28.5 h, 10 µM was 89.8%. On to `COc1ccc(OC)c2[nH]c(C(=O)N3CCCC34CC=CC4)cc12` [CBK282814], for which the viability at 28.5 h, 10 µM stood at 85.9%. Turning to `CN(C)CCN(C)c1cc(-c2cccc(Br)c2)nc2ccnn12` [CBK037140], the viability at 28.5 h, 10 µM came to 106%. `Cc1cc(CC(=O)NCCc2c[nH]c3ccc(Cl)cc23)on1` [CBK159774]: the viability at 28.5 h, 10 µM was 86.4%. As for `CC1CCc2c(sc(NC(=O)c3ccn(C)n3)c2C#N)C1` (centres unmarked) [CBK304682], the viability at 28.5 h, 10 µM stood at 89.8%. For the molecule `COc1ccccc1-c1cc(C(=O)NCCCN2CCOCC2)c2ccccc2n1` [CBK267780], the viability at 28.5 h, 10 µM amounted to 83.8%. For the molecule `O=C(COc1ccc(F)cc1F)NNC(=S)NC1CCCCC1` [CBK266859], the viability at 28.5 h, 10 µM was determined as 82.2%. As for `CC(=O)N1CCc2c(c3cccc(Br)c3n2Cc2ccccc2)C1` [CBK024402], the viability at 28.5 h, 10 µM worked out at 93.9%. On the same count and under the same terms, in the case of `COc1ccc(-c2ccc(=O)n(CC(=O)NC(C(=O)O)c3ccccc3)n2)c(F)c1` (centres unmarked) [CBK286769] it was 97.3%. With `Cc1ccc(N(CCc2cc(C(F)(F)F)cc(C(F)(F)F)c2)C(=O)CN)cc1NC(=O)CN(C)C` [CBK003630T], the viability at 28.5 h, 10 µM was 84.5%. In the case of `Cc1ccc2nsnc2c1NC(=O)COc1ccccc1F` [CBK269420], the viability at 28.5 h, 10 µM turned out to be 105%. The same measure, in the same setting: for `N#Cc1ccc(NCc2ccccc2CN2CCCC2CO)cn1` (centres unmarked) [CBK304077] the value was 97.9%.

Consider `O=C(N[C@H]1C[C@H]2C(=O)NC[C@@H](CCC(=O)N3CCCCC3)N2C1)c1cccc(F)c1` [CBK289011], for which the viability at 28.5 h, 10 µM was 85%.

In the case of `O=C(O)c1cccc(Nc2ncnc3ccccc23)c1` [CBK073042], the viability at 28.5 h, 10 µM was found to be 87.8%. On to `CC(C)C1C(=O)Nc2ccccc2N1C(=O)NCCC(=O)O` (centres unmarked) [CBK286659], for which the viability at 28.5 h, 10 µM was determined as 87.4%. Consider `Cc1ccccc1S(=O)(=O)Nc1cc(CN2C[C@H](C)NC[C@H]2C)c2occc2c1` [CBK107210T], for which the viability at 28.5 h, 10 µM is 108%.

As for `O=C(N[C@H]1CCN2C(=O)c3cc(-c4ccsc4)ccc3NC(=O)[C@@H]2C1)c1cccs1` [CBK289563], the viability at 28.5 h, 10 µM came to 103%. On the same count and under the same terms, in the case of `CCN(CC)C(=O)Cc1cc(C(=O)O)c2ccccc2n1` [CBK286942] it was 104%.

As for `O=C(O)c1ccc2c(c1)C(=O)N(c1ccc(-c3nc(-c4ccccc4)c4ccccc4n3)cc1)C2=O` [CBK263311], the viability at 28.5 h, 10 µM was determined as 101%. The same measure, in the same setting: in the case of `COc1ccc(CN2CCCN(S(=O)(=O)c3ccc(C(=O)c4ccccc4)cc3)CC2)cc1F` [CBK062855] it was 97.7%; in that of `CC(C)(C)c1ccc(C(=O)NCCNC(=O)c2nonc2N)cc1` [CBK268869], 89.5%; in that of `CNC(=O)c1ccc(-c2cc(OC)c(OC)c(OC)c2)nc1NCCOC` [CBK105997], 94.1%. Same read-out and setting: in the case of `CC(C)CC(NC(=O)Cc1cccc(O)c1)c1nnc2n1CCNCC2` (centres unmarked) [CBK307183] it was 98.3%. The same measure, in the same setting: for `c1ccc(Oc2ccccc2-c2cc(NCCc3c[nH]cn3)ncn2)cc1` [CBK037845] the value was 82.9%; for `COCc1ccc(C(=O)N2CCC(c3cc4ncccc4[nH]3)CC2)o1` [CBK283373], 102%. Regarding `CCN1C(=O)CC2(C1=O)C(=O)N(CCc1cccs1)c1ccc(Cl)cc12` (centres unmarked) [CBK075614], the viability at 28.5 h, 10 µM was determined as 106%. For `Cc1nnc(N2CCN(Cc3sccc3Cl)CC2)nc1C` [CBK304075], the viability at 28.5 h, 10 µM stood at 93.7%. For `COc1ccc(NC(=O)C2CCCN2S(=O)(=O)c2ccc(OC)cc2)cc1` (centres unmarked) [CBK070001], the viability at 28.5 h, 10 µM was 78.1%. In the case of `CC(CN(C)C(=O)Cn1cccc(C(=O)NC2CCCCC2)c1=O)c1ccccc1` (centres unmarked) [CBK286066], the viability at 28.5 h, 10 µM was 92.5%.

Regarding `CS(=O)(=O)Nc1ccc(CC#N)cc1` [CBK038145], the viability at 28.5 h, 10 µM was 114%.

Take `COc1ccc(CNc2cncc(-c3ccc(C(C)C)cc3)n2)cc1` [CBK065514]: the viability at 28.5 h, 10 µM is 119%. Regarding `CC(C)C[C@H](NC(=O)OC(C)(C)C)C(=O)NC[C@H]1CC[C@H](C(=O)O)CC1` [CBK286750], the viability at 28.5 h, 10 µM amounted to 85.9%. Still for that read-out and setting: in the case of `Cc1nnc(N/N=C\c2ccco2)n1N` [CBK028824C] it was 97.4%.

For `NCC(=O)Nc1ccc(F)c(F)c1` [CBK046313], the viability at 28.5 h, 10 µM was 103%. In the case of `CCOc1cc(/C=C2\N=C(c3ccc(OC)cc3)OC2=O)cc(Br)c1OCC(=O)OC` [CBK102552], the viability at 28.5 h, 10 µM is 96.3%. With `O=C(N[C@H]1CCN2C(=O)N(CCCl)C(=O)[C@@H]2C1)c1cccs1` [CBK289542], the viability at 28.5 h, 10 µM (bulk resorufin, single well) was 90.8%. Turning to `Cc1c(NC(=O)Nc2ccccc2)sc(=S)n1C` [CBK027434], the viability at 28.5 h, 10 µM came to 90.6%.

Take `CCCCC(=O)NC(c1ccc(Cl)cc1)c1cc([N+](=O)[O-])c2cccnc2c1O` (centres unmarked) [CBK293938]: the viability at 28.5 h, 10 µM amounted to 90.1%. Turning to `O=c1n(Cc2ccccc2F)nc2nnc(-c3ccccc3)c(-c3ccccc3)n12` [CBK286179], the viability at 28.5 h, 10 µM was determined as 80.9%. `COc1ccc(-c2c(-c3ccc(F)cc3)[nH]c3[nH]c(=O)[nH]c(=O)c23)cc1` [CBK288232]: the viability at 28.5 h, 10 µM amounted to 111%. On the same count and under the same terms, in the case of `C=C(C)CN1CCN(C(=O)C2Cc3cc(Cl)ccc3O2)CC1` (centres unmarked) [CBK282639] it was 89%.
